From ChEMBL document CHEMBL6078616, “Seven-membered N-heterocycles as approved drugs and promising leads in medicinal chemistry as well as the metal-free domino access to their scaffolds” (Eur J Med Chem, 2024)

How the values were obtained:
Histone deacetylase 1 = Histone deacetylase 1 (Homo sapiens, UniProt Q13547); experiment: Inhibition of HDAC1 (unknown origin)
Histone deacetylase 2 = Histone deacetylase 2 (Homo sapiens, UniProt Q92769); experiment: Inhibition of HDAC2 (unknown origin)
Histone deacetylase 4 = Histone deacetylase 4 (Homo sapiens, UniProt P56524); experiment: Inhibition of HDAC4 (unknown origin)
Histone deacetylase 4, sequence (P56524 whole entry): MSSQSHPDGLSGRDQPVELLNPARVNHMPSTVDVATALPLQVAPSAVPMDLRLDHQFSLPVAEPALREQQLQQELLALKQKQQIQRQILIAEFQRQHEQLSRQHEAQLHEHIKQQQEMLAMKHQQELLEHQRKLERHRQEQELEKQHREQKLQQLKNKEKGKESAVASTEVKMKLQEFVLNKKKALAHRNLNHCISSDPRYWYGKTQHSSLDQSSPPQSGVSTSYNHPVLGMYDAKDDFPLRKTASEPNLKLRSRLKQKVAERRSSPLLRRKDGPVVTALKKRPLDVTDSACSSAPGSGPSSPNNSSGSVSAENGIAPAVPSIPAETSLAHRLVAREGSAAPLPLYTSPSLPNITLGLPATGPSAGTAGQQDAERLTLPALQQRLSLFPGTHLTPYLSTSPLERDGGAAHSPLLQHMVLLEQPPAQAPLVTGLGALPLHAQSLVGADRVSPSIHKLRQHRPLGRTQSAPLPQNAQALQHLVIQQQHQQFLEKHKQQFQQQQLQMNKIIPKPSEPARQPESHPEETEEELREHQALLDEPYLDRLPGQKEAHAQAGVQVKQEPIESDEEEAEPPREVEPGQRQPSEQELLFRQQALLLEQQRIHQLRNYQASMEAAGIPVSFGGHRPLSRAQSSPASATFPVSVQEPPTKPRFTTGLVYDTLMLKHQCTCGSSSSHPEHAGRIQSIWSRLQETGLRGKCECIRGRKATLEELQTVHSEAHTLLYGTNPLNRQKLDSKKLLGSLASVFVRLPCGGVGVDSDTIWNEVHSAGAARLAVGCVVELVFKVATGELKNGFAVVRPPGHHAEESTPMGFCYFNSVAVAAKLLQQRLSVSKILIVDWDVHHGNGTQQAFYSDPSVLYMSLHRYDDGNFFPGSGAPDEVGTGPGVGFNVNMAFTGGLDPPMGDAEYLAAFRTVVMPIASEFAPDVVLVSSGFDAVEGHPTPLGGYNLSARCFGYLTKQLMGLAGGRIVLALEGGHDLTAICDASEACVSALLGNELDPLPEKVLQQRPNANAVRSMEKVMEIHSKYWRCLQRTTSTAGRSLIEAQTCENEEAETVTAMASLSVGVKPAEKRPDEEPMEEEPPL

Histone deacetylase 5 = Histone deacetylase 5 (Homo sapiens, UniProt Q9UQL6); experiment: Inhibition of HDAC5 (unknown origin)
Histone deacetylase 5, sequence (Q9UQL6 whole entry): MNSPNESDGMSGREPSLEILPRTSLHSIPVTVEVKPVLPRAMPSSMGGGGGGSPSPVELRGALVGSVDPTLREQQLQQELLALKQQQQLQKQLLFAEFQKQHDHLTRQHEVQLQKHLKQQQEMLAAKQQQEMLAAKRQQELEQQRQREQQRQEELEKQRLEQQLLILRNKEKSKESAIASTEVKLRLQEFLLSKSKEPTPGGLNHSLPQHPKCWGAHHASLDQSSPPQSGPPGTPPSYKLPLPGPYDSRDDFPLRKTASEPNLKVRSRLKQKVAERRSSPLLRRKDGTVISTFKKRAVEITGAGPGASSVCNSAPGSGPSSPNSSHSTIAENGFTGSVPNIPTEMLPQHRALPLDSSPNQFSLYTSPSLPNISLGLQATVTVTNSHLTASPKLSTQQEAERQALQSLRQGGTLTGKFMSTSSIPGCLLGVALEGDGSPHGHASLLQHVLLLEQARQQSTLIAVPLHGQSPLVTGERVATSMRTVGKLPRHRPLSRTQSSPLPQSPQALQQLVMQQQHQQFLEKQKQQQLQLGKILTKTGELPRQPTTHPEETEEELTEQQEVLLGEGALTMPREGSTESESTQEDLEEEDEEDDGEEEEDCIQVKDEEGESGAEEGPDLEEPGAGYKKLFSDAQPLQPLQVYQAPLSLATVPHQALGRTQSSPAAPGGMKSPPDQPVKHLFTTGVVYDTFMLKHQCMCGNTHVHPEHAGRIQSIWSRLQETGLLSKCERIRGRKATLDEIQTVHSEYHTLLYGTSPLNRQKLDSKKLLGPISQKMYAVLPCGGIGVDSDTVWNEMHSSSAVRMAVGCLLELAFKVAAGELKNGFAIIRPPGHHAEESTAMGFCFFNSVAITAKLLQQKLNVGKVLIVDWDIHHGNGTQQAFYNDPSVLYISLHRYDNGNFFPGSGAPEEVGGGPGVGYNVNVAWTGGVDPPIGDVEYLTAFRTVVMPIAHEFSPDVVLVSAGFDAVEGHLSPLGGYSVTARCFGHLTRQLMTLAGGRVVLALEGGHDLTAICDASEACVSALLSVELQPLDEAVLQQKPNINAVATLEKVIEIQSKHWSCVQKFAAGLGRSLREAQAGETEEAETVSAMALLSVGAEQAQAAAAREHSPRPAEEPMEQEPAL

[1] = molecular target: T1, Protein deacetylase HDAC6 (Homo sapiens, UniProt Q9UBN7); experiment: Inhibition of HDAC6 (unknown origin)
T1 sequence (Q9UBN7 whole entry): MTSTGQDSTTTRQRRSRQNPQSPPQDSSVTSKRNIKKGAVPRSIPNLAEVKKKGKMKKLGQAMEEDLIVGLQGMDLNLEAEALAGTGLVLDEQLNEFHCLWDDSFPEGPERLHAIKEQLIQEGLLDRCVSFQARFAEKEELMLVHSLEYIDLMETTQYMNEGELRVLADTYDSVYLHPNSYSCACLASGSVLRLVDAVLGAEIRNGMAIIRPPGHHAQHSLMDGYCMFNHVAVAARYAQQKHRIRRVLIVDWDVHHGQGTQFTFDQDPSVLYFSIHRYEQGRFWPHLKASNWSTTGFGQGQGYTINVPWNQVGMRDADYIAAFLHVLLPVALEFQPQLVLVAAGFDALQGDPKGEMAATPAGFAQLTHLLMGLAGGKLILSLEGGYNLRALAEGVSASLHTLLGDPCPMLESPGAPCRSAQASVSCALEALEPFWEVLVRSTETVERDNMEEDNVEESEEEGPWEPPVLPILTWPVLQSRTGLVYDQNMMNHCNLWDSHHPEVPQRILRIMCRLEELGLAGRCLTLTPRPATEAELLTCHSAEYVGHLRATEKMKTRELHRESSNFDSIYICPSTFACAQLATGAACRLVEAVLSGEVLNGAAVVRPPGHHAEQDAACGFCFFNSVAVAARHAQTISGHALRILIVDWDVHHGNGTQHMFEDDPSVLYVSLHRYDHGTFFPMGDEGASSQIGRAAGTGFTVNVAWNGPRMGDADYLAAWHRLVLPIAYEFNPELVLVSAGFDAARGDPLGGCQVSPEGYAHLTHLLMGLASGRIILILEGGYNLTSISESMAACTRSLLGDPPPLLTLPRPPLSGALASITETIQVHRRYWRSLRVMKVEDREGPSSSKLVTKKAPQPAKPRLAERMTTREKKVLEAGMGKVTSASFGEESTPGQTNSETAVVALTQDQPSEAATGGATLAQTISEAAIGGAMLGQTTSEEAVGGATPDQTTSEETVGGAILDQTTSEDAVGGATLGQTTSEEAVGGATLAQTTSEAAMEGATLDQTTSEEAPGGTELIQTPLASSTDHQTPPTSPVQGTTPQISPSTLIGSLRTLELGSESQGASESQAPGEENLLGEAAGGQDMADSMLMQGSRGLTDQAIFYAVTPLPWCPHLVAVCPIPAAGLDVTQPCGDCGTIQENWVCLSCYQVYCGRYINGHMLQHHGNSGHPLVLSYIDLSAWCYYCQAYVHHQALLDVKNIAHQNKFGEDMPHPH

Histone deacetylase 7 = molecular target: T2, Histone deacetylase 7 (Homo sapiens, UniProt Q8WUI4); experiment: Inhibition of HDAC7 (unknown origin)
T2 sequence (Q8WUI4 whole entry): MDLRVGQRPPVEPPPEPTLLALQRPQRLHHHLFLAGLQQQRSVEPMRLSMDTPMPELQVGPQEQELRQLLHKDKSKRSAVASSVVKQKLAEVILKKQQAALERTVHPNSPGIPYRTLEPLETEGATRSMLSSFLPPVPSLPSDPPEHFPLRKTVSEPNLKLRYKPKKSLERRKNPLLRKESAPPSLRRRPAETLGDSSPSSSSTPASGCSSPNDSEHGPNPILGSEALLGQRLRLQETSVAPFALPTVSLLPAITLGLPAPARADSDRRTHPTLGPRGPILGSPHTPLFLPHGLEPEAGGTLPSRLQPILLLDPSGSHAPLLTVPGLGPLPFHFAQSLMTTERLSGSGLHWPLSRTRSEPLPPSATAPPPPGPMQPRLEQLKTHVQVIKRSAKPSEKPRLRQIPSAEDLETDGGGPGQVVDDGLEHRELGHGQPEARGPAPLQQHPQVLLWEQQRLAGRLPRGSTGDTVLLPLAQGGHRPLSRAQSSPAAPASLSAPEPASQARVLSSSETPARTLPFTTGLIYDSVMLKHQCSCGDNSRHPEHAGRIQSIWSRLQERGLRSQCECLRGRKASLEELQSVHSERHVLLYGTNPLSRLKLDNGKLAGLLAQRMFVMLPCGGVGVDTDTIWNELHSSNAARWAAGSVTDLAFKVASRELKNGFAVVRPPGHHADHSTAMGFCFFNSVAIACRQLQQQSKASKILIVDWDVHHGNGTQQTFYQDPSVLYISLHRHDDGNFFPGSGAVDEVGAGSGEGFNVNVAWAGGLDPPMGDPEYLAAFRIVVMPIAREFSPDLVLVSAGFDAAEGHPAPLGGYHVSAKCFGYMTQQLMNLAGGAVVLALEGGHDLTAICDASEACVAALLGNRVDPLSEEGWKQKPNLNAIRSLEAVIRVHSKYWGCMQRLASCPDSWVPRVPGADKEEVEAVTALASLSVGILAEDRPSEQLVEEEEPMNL

Histone deacetylase 8 = molecular target: T3, Histone deacetylase 8 (Homo sapiens, UniProt Q9BY41); experiment: Inhibition of HDAC8 (unknown origin)
T3 sequence (Q9BY41 whole entry): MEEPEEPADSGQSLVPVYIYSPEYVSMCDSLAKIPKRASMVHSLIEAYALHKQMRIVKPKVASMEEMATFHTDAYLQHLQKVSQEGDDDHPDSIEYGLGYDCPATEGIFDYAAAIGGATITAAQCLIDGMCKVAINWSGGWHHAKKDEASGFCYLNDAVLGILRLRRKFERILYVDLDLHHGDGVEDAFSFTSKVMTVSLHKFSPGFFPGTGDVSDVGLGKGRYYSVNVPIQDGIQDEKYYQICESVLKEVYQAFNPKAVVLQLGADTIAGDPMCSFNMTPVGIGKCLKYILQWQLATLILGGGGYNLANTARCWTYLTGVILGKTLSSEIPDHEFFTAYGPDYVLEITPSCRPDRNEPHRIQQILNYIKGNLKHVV

Histone deacetylase 9 = Histone deacetylase 9 (Homo sapiens, UniProt Q9UKV0); experiment: Inhibition of HDAC9 (unknown origin)
Histone deacetylase 9, sequence (Q9UKV0 whole entry): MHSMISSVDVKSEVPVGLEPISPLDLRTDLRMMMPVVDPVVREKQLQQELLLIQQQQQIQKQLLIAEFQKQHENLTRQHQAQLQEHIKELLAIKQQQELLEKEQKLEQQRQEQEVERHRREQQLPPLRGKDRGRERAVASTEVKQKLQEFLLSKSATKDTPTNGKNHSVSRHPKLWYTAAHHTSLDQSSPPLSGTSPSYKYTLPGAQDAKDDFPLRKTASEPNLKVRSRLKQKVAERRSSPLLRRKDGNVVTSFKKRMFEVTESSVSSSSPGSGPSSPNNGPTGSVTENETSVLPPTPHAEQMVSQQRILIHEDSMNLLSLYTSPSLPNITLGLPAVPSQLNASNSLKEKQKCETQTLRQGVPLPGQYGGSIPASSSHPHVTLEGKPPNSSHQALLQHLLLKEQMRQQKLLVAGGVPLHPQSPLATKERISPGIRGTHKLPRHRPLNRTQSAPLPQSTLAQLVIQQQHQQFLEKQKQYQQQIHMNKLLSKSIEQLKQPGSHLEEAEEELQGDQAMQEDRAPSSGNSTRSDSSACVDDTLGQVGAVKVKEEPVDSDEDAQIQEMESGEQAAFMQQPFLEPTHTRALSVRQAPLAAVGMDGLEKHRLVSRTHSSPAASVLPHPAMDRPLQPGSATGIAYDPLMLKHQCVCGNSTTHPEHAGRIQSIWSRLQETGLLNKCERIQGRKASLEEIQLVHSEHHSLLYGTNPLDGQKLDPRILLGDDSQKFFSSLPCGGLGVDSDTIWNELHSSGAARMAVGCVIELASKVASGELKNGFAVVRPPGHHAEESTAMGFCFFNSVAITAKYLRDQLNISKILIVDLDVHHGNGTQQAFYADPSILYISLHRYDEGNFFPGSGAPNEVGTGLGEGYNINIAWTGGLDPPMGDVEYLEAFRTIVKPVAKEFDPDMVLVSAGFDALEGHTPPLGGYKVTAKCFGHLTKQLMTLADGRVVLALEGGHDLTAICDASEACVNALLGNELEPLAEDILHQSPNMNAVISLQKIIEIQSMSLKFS

Histone deacetylase 2, sequence (Q92769 whole entry): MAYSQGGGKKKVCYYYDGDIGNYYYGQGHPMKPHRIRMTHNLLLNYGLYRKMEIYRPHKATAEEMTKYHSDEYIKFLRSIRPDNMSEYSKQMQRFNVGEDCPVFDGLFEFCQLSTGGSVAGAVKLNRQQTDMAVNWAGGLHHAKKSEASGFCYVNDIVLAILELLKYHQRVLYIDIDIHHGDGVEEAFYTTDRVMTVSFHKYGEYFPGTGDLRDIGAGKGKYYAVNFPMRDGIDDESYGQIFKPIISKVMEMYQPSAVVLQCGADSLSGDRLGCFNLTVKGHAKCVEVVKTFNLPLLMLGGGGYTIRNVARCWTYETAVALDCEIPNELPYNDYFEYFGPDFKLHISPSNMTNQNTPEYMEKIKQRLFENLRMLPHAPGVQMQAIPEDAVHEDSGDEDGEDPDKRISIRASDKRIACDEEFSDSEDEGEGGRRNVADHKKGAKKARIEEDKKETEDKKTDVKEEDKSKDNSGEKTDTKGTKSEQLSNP
Histone deacetylase 1, sequence (Q13547 whole entry): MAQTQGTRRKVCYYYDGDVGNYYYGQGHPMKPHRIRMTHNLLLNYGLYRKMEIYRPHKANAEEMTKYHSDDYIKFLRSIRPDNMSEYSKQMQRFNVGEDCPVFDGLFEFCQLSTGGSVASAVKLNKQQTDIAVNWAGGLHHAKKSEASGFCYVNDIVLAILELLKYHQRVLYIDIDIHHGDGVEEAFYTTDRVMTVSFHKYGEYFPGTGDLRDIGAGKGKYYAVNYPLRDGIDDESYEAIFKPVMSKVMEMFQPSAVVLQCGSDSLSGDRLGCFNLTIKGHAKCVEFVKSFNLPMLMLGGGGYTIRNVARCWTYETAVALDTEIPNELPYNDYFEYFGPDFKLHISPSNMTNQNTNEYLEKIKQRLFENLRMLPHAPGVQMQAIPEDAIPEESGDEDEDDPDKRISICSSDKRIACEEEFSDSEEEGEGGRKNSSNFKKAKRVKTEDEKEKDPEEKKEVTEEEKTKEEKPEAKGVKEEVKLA

IC50 (Histone deacetylase 1): 4.9 µM
IC50 (Histone deacetylase 2): 26 µM
IC50 (Histone deacetylase 4): > 30 µM
IC50 (Histone deacetylase 5): 12 µM
IC50 [1]: 0.1 µM
IC50 (Histone deacetylase 7): > 30 µM
IC50 (Histone deacetylase 8): 2.9 µM
IC50 (Histone deacetylase 9): 8.9 µM
Compound: O=C(NO)c1ccc(CN2c3ccccc3[S+]([O-])C[C@H]3CCCC[C@H]32)cc1 (stereo partly drawn)
